Values joined by “and” are separate entries in the source; they are usually repeats but may differ in a detail not shown here. Equal entries are not always repeated.
What was measured:
[1] = system: catD versus beta-secretase (BACE); assay: Selectivity for BACE versus catD (ratio of IC50 values); type: biochemical; conditions: each value an average of four runs; multiple values = more than one experiment
Experimental: (§1) Investigation of potential beta-secretase inhibitors produced compounds with increased selectivity for beta-secretase over other aspartyl proteases such as cathepsin D (catD), cathepsin E (catE), HIV protease, and renin. Selectivity was calculated as a ratio of inhibition (IC50) values in which the inhibition of beta-secretase was compared to the inhibition of other aspartyl proteases. […] Alternatively, a compound is selective when its binding affinity is greater for its desired target (e.g., beta-secretase) versus a secondary target (e.g., catD). Accordingly, methods of treatment include administering selective compounds of formula (I) having a lower IC50 value for inhibiting beta-secretase, or greater binding affinity for beta-secretase, than for other aspartyl proteases such as catD, catE, HIV protease, or renin. A selective compound is also capable of producing a higher ratio of desired effects to adverse effects, resulting in a safer method of treatment.
The compounds of formula (I) can be selective for beta-secretase versus catD. […] Selectivity is reported as the ratio of IC50(catD):IC50(BACE).
(§2) In the following examples, each value is an average of four experimental runs and multiple values for one compound indicate that more than one experiment was conducted.

A-beta = assay: Efficacy of compounds to inhibit A-beta concentration; type: in vivo, rat; conditions: % inhibition of A-beta vs vehicle control
Experimental: Efficacious compounds of the present invention are those able to decrease the amount of A-beta produced compared to a control, where beta-secretase mediated cleavage is observed and measured in the absence of the compounds. Detection of efficacy can be by analysis of A-beta levels, for example, by immunoassay, fluorometric or chromogenic assay, HPLC, or other means of detection. The efficacy of the compounds of formula (I) was determined as a percentage inhibition corresponding to A-beta concentrations for tissue treated and untreated with a compound of formula (I).
The invention encompasses compounds of formula (I) that are efficacious. Efficacy is calculated as a percentage of concentrations as follows: Efficacy=(1−(total A-beta in dose group/total A-beta in vehicle control))*100% wherein the “total A-beta in dose group” equals the concentration of A-beta in the tissue, (e.g., rat brain) treated with the compound, and the “total A-beta in vehicle control” equals the concentration of A-beta in the tissue, yielding a % inhibition of A-beta production. Statistical significance is determined by p-value <0.05 using the Mann Whitney t-test. See, for example, Dovey et al., J. Neurochemistry, 2001, 76:173-181.

[2] = system: catE versus beta-secretase (BACE); assay: Selectivity for BACE versus catE (ratio of IC50 values); type: biochemical; conditions: each value an average of four runs; multiple values = more than one experiment
Experimental: as §1
The compounds of formula (I) can be selective for beta-secretase versus catE. […] Selectivity is reported as the ratio of IC50(catE):IC50(BACE).
as §2

CC(=O)NC(Cc1cc(F)cc(F)c1)C(O)CNCc1cc(CC(C)(C)C)ccc1-n1cnc(C)c1 (centres unmarked) [Example 41.4, N-{1-(3,5-Difluoro-benzyl)-3-[5-(2,2-dimethyl-propyl)-2-(4-methyl-imidazol-1-yl)-benzylamino]-2-hydroxy-propyl}-acetamide]
Selectivity IC50(catD)/IC50(BACE) [1]: 1.7

CC(=O)NC(Cc1cc(F)cc(F)c1)C(O)CNCc1cc(CC(C)(C)C)ccc1-n1nccn1 (centres unmarked) [Example 41.7, N-(1-(3,5-difluorophenyl)-3-hydroxy-4-(5-neopentyl-2-(2H-1,2,3-triazol-2-yl)benzylamino)butan-2-yl)acetamide]
Selectivity IC50(catD)/IC50(BACE) [1]: >33.1

CC(=O)NC(Cc1cc(F)cc(F)c1)C(O)CNCc1cc(CC(C)(C)C)ccc1-n1cnc(CO)c1 (centres unmarked) [Example 41.3, N-(1-(3,5-difluorophenyl)-3-hydroxy-4-(2-(4-(hydroxymethyl)-1H-imidazol-1-yl)-5-neopentylbenzylamino)butan-2-yl)acetamide]
Selectivity IC50(catD)/IC50(BACE) [1]: 1.6

CC(=O)NC(Cc1cc(F)cc(F)c1)C(O)CNCc1cc(CC(C)(C)C)ccc1-n1ccnc1 (centres unmarked) [Example 41.1, N-{1-(3,5-Difluoro-benzyl)-3-[5-(2,2-dimethyl-propyl)-2-imidazol-1-yl-benzylamino]-2-hydroxy-propyl}-acetamide]
Efficacy (% Inhibition, 100 mg/kg) cortex (A-beta; cortex): 15% | Efficacy (% Inhibition, 100 mg/kg) plasma (A-beta; plasma): 47%

CC(=O)NC(Cc1cc(F)cc(F)c1)C(O)CNCc1cc(CC(C)(C)C)ccc1-n1cnc2ccccc21 (centres unmarked) [Example 41.5, N-[3-[2-Benzoimidazol-1-yl-5-(2,2-dimethyl-propyl)-benzylamino]-1-(3,5-difluoro-benzyl)-2-hydroxy-propyl]-acetamide]
Selectivity IC50(catD)/IC50(BACE) [1]: 3.6 and 3.0

CC(=O)NC(Cc1cc(F)cc(F)c1)C(O)CNCc1cc(CC(C)(C)C)ccc1-n1nccn1 (centres unmarked) [Example 41.11, N-(1-(3,5-difluorophenyl)-3-hydroxy-4-(5-neopentyl-2-(2H-1,2,3-triazol-2-yl)benzylamino)butan-2-yl)acetamide]
Selectivity IC50(catE)/IC50(BACE) [2]: 1.4

CC(=O)NC(Cc1cc(F)cc(F)c1)C(O)CNCc1cc(CC(C)(C)C)ccc1-n1cnc(CO)c1 (centres unmarked) [Example 41.9, N-(1-(3,5-difluorophenyl)-3-hydroxy-4-(2-(4-(hydroxymethyl)-1H-imidazol-1-yl)-5-neopentylbenzylamino)butan-2-yl)acetamide]
Selectivity IC50(catE)/IC50(BACE) [2]: 1.2
